Measurements taken from US20170296621A1, “NOD2-DEPENDENT PATHWAY OF CYTOPROTECTION OF STEM CELLS” (INSTITUT PASTEUR, priority 2012, published 2017).
Where a name gives a salt, the structure may show the parent alone.

How the values were obtained:
crypts from Nod1 KO mice = experiment: Organoid formation from crypts of Nod1 KO mice upon MAMP stimulation; type: cell-based
Excerpt: FIG. 4 illustrates the fold change in number of organoids, formed from extracted crypts, from mice knocked out for Nod1 or Nod2 genes, upon different MAMPs stimulation conditions. By definition, the fold change of the untreated organoids is set to 1, and the fold changes upon the various stimulation conditions applied are by reference to the non-stimulated organoids.
Intestinal crypts were obtained following a protocol already described (Sato et al., 2009). After isolation small intestines were isolated, flushed with cold PBS followed by 0.3% bleach and again PBS, opened longitudinally and the villi were removed. […] After severals vigourous shakings the crypts, released in the supernatant, were passed through a cell strainer 70 μm (BD Falcon), spun down at 800 rpm, resuspended in DMEM and counted. […]

intestinal crypts [1] = experiment: Organoid formation from isolated intestinal crypts upon MAMP stimulation; type: cell-based, mice; conditions: wt crypts; 10 μg/ml
Method: Crypts were stimulated with soluble sonicated peptidoglycan (PGN), muramyl-dipeptide (MDP), muramyl-tetrapeptide (Tetra-dap), Escherichia coli lipopolysaccharide (LPS) (each at 10 μg/ml), 10 ng/ml flagellin (Fla), 500 ng/ml synthetic lipoprotein (Pam3CSK), or 1 μM unmethylated CpG dinucleotides (CpG). The average number of non-stimulated organoids (control) is around 50, and the fold change value of the control is fixed to 1. The fold change upon the various MAMPs applied is thus by reference to non-stimulated organoids (Ctrl).
Intestinal crypts were obtained following a protocol already described (Sato et al., 2009). After isolation small intestines were isolated, flushed with cold PBS followed by 0.3% bleach and again PBS, opened longitudinally and the villi were removed. The tissues were cutted in small pieces, washed in 5 mM PBS/EDTA for 5 min, and subsequently incubated in fresh 5 mM PBS/EDTA for 30 min on ice. After severals vigourous shakings the crypts, released in the supernatant, were passed through a cell strainer 70 μm (BD Falcon), spun down at 800 rpm, resuspended in DMEM and counted. The volume corresponding to 500 crypts was distributed in two tubes per condition, and spun down again. […] The crypts were embedded in 50 μl of growth factor reduced matrigel (BD Biosciences) in a 24-well plates, incubate at 37° C. […]

[2] = system: intestinal stem cells in crypts; experiment: Organoid formation under induced stress (doxorubicin or H2O2); type: cell-based, mice; conditions: 1 μM; after 4 days of treatment
Method: By definition, the fold change of the untreated organoids is set to 1 in the absence of any additional stress, and the fold changes upon the various stimulation or stress conditions applied are by reference to the non-stimulated non-stressed organoids.
Doxorubicin (1 μM) or H2O2 (200 μM) are added during the embedding of the crypts in the matrigel.
Intestinal crypts were obtained following a protocol already described (Sato et al., 2009). After isolation small intestines were isolated, flushed with cold PBS followed by 0.3% bleach and again PBS, opened longitudinally and the villi were removed. The tissues were cutted in small pieces, washed in 5 mM PBS/EDTA for 5 min, and subsequently incubated in fresh 5 mM PBS/EDTA for 30 min on ice. After severals vigourous shakings the crypts, released in the supernatant, were passed through a cell strainer 70 μm (BD Falcon), spun down at 800 rpm, resuspended in DMEM and counted. The volume corresponding to 500 crypts was distributed in two tubes per condition, and spun down again. […] The crypts were embedded in 50 μl of growth factor reduced matrigel (BD Biosciences) in a 24-well plates, incubate at 37° C. 20 min and overload with 500 μl of crypts medium (CM) as described previously (Sato et al 2009). […]

intestinal crypts [3] = experiment: Caspase-3 positive crypts in doxorubicin-treated mice; type: in vivo; conditions: intraperitoneal, 6 hours
Method: FIG. 11 depicts the percentage of caspase-3 positive crypts in different conditions. The results are obtained after 6 hours.
Line 1: WT, non-treated mice. Line 2: Nod2 KO mice, non-treated. Line 3: WT mice, treated with doxorubicin during 6 hours. Line 4: Nod2 KO mice, treated with doxorubicin during 6 hours. It can be observed that the absence of Nod2 induced more death in the crypts.
B6.129P2-Lgr5^tm1(cre/ESR1)Cle/mice (Lgr5-EGFP) (Barker et al., 2007) were purchased from The Jackson Laboratories. Card4/Nod1 (Nod1 KO) mice were generated by Millenium pharmaceuticals Boston. Card15/Nod2 deficient C57BL/6J (Nod2 KO) (Barreau et al., 2007) were provided by J.-P. Hugot (Hôpital Robert Debré, Paris, France). All mice were kept in specific pathogen-free conditions. When indicated the mice were injected intraperitoneally with 200 μg of EdU (Invitrogen) 2 hrs prior to sacrifice or with 10 mg/kg doxorubicin hydrochloride (Sigma) and sacrificed at indicated time points. […]
Doxorubicin in vivo. […] The percentage of crypts presenting at least one caspase3-positve cell was counted. […] To evaluate if upon doxorubicin treatment the proliferation index was affected, the number of EdU positive cells per crypts was counted and the percentage versus the total number of cells in the crypts was calculated.

intestinal crypts [4] = experiment: Proliferation index and regenerative crypts after doxorubicin injection; type: in vivo, mice; conditions: for Percentage of regenerative crypts / Relative size of crypts: 72 h after injection; for Relative size of crypts: crypt width×crypt height
Method: FIG. 13 illustrates the percentage of EdU-positive cells per crypt, in wild-type or Nod2 KO mice, after 2 hours of EdU (5-ethynyl-2-deoxyuridine) treatment.
For the analysis of proliferation in the tissue, 10 mg/kg EdU were injected IP and the animals were sacrificed after 2 h. The Click-iT® EdU Alexa Fluor® 488 Imaging Kit was used on paraffin slides that were processed according to the manufacturer's instructions.
The proliferation index was calculated as a percentage of EdU positive cells over the total number of cells in each crypt. Data from five mice each group were obtained and at least 50 crypts per section were examined for all histological parameters. A regenerative crypt was defined as a crypt containing more than 10 EdU positive cells per crypt. Relative crypt size was determined as crypt width×crypt height.
In order to evaluate the capacity of stem cells to survive and repair the damaged tissue upon doxorubicin-treatment, the inventors used a modified clonogenic microcolony assay (Tustison et al). At 72 h wt mice presented higher percentage of regenerative/surviving crypts than in Nod2 KO mice and this was associated with a bigger size of the crypts (Table 1).

[5] = system: wt stem cells (Lgr5-EGFP); experiment: Single cells stimulation: organoids from sorted wt stem cells; type: cell-based, mice; conditions: wt stem cells alone; 500 cells per well
Method: FIG. 8 depicts the average number of organoids formed per well, depending on the cell types seeded in the well, without stimulation, or under stimulation with MDP. 500 cells were seeded per well in a 96-wells-plate.
Isolated crypts from Lgr5-EGFP mice or Nod2KO mice were incubated in HBSS w/o Ca^+2 and Mg^2+ supplemented with 0.3 U/ml Dispase (BD Biosciences), 0.8 U/ml DNase (Sigma) and 10 μM Y-27632 (Sigma) for 30 min at 37° C.
Dissociated cells were washed with 1% PBS/BSA and stained with CD24-APC antibody (clone M1/69 BioLegend) and EpCam Pe-Cy7 (clone G8.8 BioLegend) for 20 min at 4° C., resuspended in crypts medium supplemented with 1 μM N-acetyl-L-cystein, 10 μM Jag-1 (Anaspec) and 10 μM Y-27632 (single cells medium-SCM) and filtered with a 20 μm mesh and analyzed with MoFlo legacy (Beckman Coulter).
Singlets of viable epithelial cells were gated by negative staining for propidium iodide and positive staining for EpCam. The stem cells and Paneth cells were isolated respectively as GFP^hi+ population, and GFP^−CD24^hi+SSC^hi population.
Stem cells and Paneth cells derived from Lgr5-EGFP or Nod2KO mice were cultured alone or in different combinations. 500 cells from each condition were re-suspended in 100 μl of single cells medium with or without MAMPs and, when indicated, with 100 ng/ml wnt3 (R&D), seeded in 96-wells round-bottom plates and incubated on ice for 15 min. […]

CC(=O)NC1C(O)OC(CO)C(O)C1OC(C)C(=O)NC(C)C(=O)NC(CCC(=O)O)C(N)=O (stereo not shown) [MDP-ctrl]
number of organoids compared with control (in words) (crypts from Nod1 KO mice): No difference was observed

CC(=O)NC1C(O)OC(CO)C(O)C1OC(C)C(=O)NC(C)C(=O)NC(CCC(=O)NC(CCCC(N)C(=O)O)C(=O)NC(C)C(=O)O)C(=O)O (stereo not shown) [Tetra-dap, MurNAc-Tetra(DAP)]
number of organoids compared with non-stimulated (in words) (intestinal crypts [1]): did not observe any differences and not

COc1cccc2c1C(=O)c1c(O)c3c(c(O)c1C2=O)C[C@@](O)(C(=O)CO)C[C@@H]3O[C@H]1C[C@H](N)[C@H](O)[C@H](C)O1 [doxorubicin, doxorubicin hydrochloride]
less organoids after treatment [2]: 50% | percentage of crypts with apoptotic (caspase-3 positive) cells (intestinal crypts [3]; Nod2 KO mice): 54% | percentage of crypts with apoptotic (caspase-3 positive) cells (intestinal crypts [3]; wt mice): 30% | Percentage of regenerative crypts (intestinal crypts [4]; Nod2 KO mice): 33.9 ± 9.4 % | Relative size of crypts (intestinal crypts [4]; Nod2 KO mice): 2538 ± 180 | proliferation index in crypts (in words) (intestinal crypts [4]; Nod2 KO mice, following days): low rate of proliferation | proliferation index in crypts (in words) (intestinal crypts [4]; both wt and Nod2 KO mice, 6h until 24 h after injection): decrease in the rate of proliferation | proliferation index in crypts (in words) (intestinal crypts [4]; wt mice, 48 h until 72 h): reaching almost the same rate observed in the non-treated mice | Percentage of regenerative crypts (intestinal crypts [4]; wt mice): 59.9 ± 6.4% | Relative size of crypts (intestinal crypts [4]; wt mice): 3231 ± 105

B1: wnt ligand: 100 ng/ml wnt3 (R&D) added to stem cells (protein, UniProt P56703 22-355, looked up)
Proto-oncogene Wnt-3: GYPIWWSLALGQQYTSLGSQPLLCGSIPGLVPKQLRFCRNYIEIMPSVAEGVKLGIQECQHQFRGRRWNCTTIDDSLAIFGPVLDKATRESAFVHAIASAGVAFAVTRSCAEGTSTICGCDSHHKGPPGEGWKWGGCSEDADFGVLVSREFADARENRPDARSAMNKHNNEAGRTTILDHMHLKCKCHGLSGSCEVKTCWWAQPDFRAIGDFLKDKYDSASEMVVEKHRESRGWVETLRAKYSLFKPPTERDLVYYENSPNFCEPNPETGSFGTRDRTCNVTSHGIDGCDLLCCGRGHNTRTEKRKEKCHCIFHWCCYVSCQECIRIYDVHTCK
average of organoids per well [5]: around 3 organoids per well
